Experiments:
[1] = Antioxidant activity of the compound assessed as DPPH radical scavenging activity incubated in dark condition for 15 mins by colorimetric method; format: physicochemical; conditions: 0.25 h
[2] = Inhibition of baker's yeast alpha-glucosidase; design: species or system Saccharomyces cerevisiae
[3] = Antioxidant activity of the compound assessed as DPPH radical scavenging activity at 5 mg/ml incubated in dark condition for 15 mins by colorimetric method relative to control; format: physicochemical; conditions: 0.25 h
Saccharomyces cerevisiae = assay: Inhibition of baker's yeast alpha-glucosidase at 10 mg/ml relative to control

SMILES | SC50 [1] | IC50 [2] | Activity [3] | inhibition (Saccharomyces cerevisiae)
CC(C)(C)c1cc(C=O)cc(C(C)(C)C)c1O | 1.4 mM | – | – | –
CC(C)(C)c1cc(CN[C@H]2C[C@@H](O)[C@H](O)[C@@H](O)[C@H]2O)cc(C(C)(C)C)c1O | 0.4 mM | 89.1 µM | – | –
COc1cc(C=O)ccc1O [VANILLIN] | 4.9 mM | – | – | –
O=Cc1ccc(O)cc1 [4-HYDROXYBENZALDEHYDE] | – | – | < 20% | –
C[C@H]1O[C@H](O[C@H]2[C@H](O)[C@@H](O)[C@@H](O[C@H]3[C@H](O)[C@@H](O)C(O)O[C@@H]3CO)O[C@@H]2CO)[C@H](O)[C@@H](O)[C@@H]1N[C@H]1C=C(CO)[C@@H](O)[C@H](O)[C@H]1O (stereo partly drawn) [ACARBOSE] | – | 480 µM | < 20% | –
O[C@@H]1[C@@H](O)[C@H](O)C[C@H](NCCc2ccccc2)[C@@H]1O | – | 1350 µM | < 20% | –

Next, values leading:

SC50 [1] | IC50 [2] | Activity [3] | inhibition (Saccharomyces cerevisiae) | SMILES
– | 3140 µM | < 20% | – | O[C@@H]1[C@@H](O)[C@H](O)C[C@H](NCc2ccc(Br)cc2)[C@@H]1O
– | – | < 20% | < 30% | O[C@@H]1[C@@H](O)[C@H](O)C[C@H](NCc2cccs2)[C@@H]1O
– | 2890 µM | < 20% | – | N[C@H]1C[C@@H](O)[C@H](O)[C@@H](O)[C@H]1O
2.1 mM | 94.4 µM | – | – | COc1cc(CN[C@H]2C[C@@H](O)[C@H](O)[C@@H](O)[C@H]2O)ccc1O
– | – | < 20% | < 30% | O[C@@H]1[C@@H](O)[C@H](O)C[C@H](NCc2cccnc2)[C@@H]1O
16.2 mM | 111 µM | – | – | Oc1ccc(CN[C@H]2C[C@@H](O)[C@H](O)[C@@H](O)[C@H]2O)cc1
– | 3010 µM | < 20% | – | OC(CN[C@H]1C[C@@H](O)[C@H](O)[C@@H](O)[C@H]1O)c1ccccc1 (stereo partly drawn)
